Measured values taken from PubChem BioAssay (NCI).
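Interpolation was linear, between the two tested concentrations surrounding the appropriate level; five concentrations were tested over 48 hours in 96-well plates. TGI: total growth inhibition.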

How the values were obtained:
Test in all cases: inhibition of tumour cell growth, NCI panel, 48 h
MOLT-4 leukemia = test system: MOLT-4 leukemia
ACHN renal = test system: ACHN renal
HL-60(TB) leukemia = test system: HL-60(TB) leukemia
COLO 205 colon = test system: COLO 205 colon
UACC-257 melanoma = test system: UACC-257 melanoma
HS 578T breast = test system: HS 578T breast
SN12C renal = test system: SN12C renal
NCI-H522 lung = test system: NCI-H522 lung
A549 NSCLC = test system: A549 NSCLC
BT-549 breast = test system: BT-549 breast
OVCAR-4 ovarian = test system: OVCAR-4 ovarian
DU-145 prostate = test system: DU-145 prostate
HCT-15 colon = test system: HCT-15 colon
NCI-H226 lung = test system: NCI-H226 lung
NCI-H23 lung = test system: NCI-H23 lung
MDA-MB-231 breast = test system: MDA-MB-231 breast
SW-620 colon = test system: SW-620 colon
SF-295 CNS = test system: SF-295 CNS
SF-268 CNS = test system: SF-268 CNS
HT29 colon = test system: HT29 colon
SK-MEL-28 melanoma = test system: SK-MEL-28 melanoma
MDA-MB-435 = test system: MDA-MB-435
UO-31 renal = test system: UO-31 renal
M14 melanoma = test system: M14 melanoma
TK-10 renal = test system: TK-10 renal
U251 CNS = test system: U251 CNS
HOP-92 NSCLC = test system: HOP-92 NSCLC
KM12 colon = test system: KM12 colon
OVCAR-3 ovarian = test system: OVCAR-3 ovarian
HCT-116 colon = test system: HCT-116 colon
OVCAR-5 ovarian = test system: OVCAR-5 ovarian
SK-MEL-5 melanoma = test system: SK-MEL-5 melanoma
EKVX NSCLC = test system: EKVX NSCLC
786-0 renal = test system: 786-0 renal
HOP-62 NSCLC = test system: HOP-62 NSCLC
RPMI-8226 leukemia = test system: RPMI-8226 leukemia
PC-3 prostate = test system: PC-3 prostate
OVCAR-8 ovarian = test system: OVCAR-8 ovarian
MCF7 breast = test system: MCF7 breast
UACC-62 melanoma = test system: UACC-62 melanoma
T-47D breast = test system: T-47D breast
CAKI-1 renal = test system: CAKI-1 renal
NCI/ADR-RES ovarian = test system: NCI/ADR-RES ovarian
SK-MEL-2 melanoma = test system: SK-MEL-2 melanoma
IGROV1 ovarian = test system: IGROV1 ovarian
MALME-3M melanoma = test system: MALME-3M melanoma
SNB-19 CNS = test system: SNB-19 CNS
A498 renal = test system: A498 renal
MDA-N = test system: MDA-N
SK-OV-3 ovarian = test system: SK-OV-3 ovarian
SF-539 CNS = test system: SF-539 CNS
SR leukemia = test system: SR leukemia
K-562 leukemia = test system: K-562 leukemia
CCRF-CEM leukemia = test system: CCRF-CEM leukemia
SNB-75 CNS = test system: SNB-75 CNS
NCI-H460 lung = test system: NCI-H460 lung
RXF 393 renal = test system: RXF 393 renal
HCC-2998 colon = test system: HCC-2998 colon
LOX IMVI melanoma = test system: LOX IMVI melanoma

Measured: TGI

C=CCN1C[C@H](C)N([C@H](c2ccc(C(=O)N(CC)CCO)cc2)c2cccc(OC)c2)C[C@H]1C
54.6 µM: OVCAR-3 ovarian
not listed: K-562 leukemia | CCRF-CEM leukemia | SNB-75 CNS | NCI-H460 lung | RXF 393 renal | HCC-2998 colon | LOX IMVI melanoma
> 100 µM: all other assays above

CC1=C(C(N)=O)C(c2ccncc2)C(C#N)=C2SCC(=O)N12 (centres undefined)
not listed: TK-10 renal | HCC-2998 colon | LOX IMVI melanoma
> 100 µM: all other assays above

Cc1cccc(/C=N/NC(=S)NCCc2ccccn2)n1
41.7 µM: HL-60(TB) leukemia
43.5 µM: SK-OV-3 ovarian
> 93 µM: RPMI-8226 leukemia
33.6 µM: M14 melanoma
56.7 µM: UACC-62 melanoma
> 73.7 µM: MDA-MB-435 | NCI/ADR-RES ovarian
> 72.9 µM: CCRF-CEM leukemia
87.5 µM: A498 renal
66.3 µM: NCI-H226 lung
92.1 µM: U251 CNS
> 75.1 µM: HOP-62 NSCLC
64.2 µM: UO-31 renal
75 µM: SNB-75 CNS
> 74.5 µM: ACHN renal
> 86.3 µM: DU-145 prostate
> 73.3 µM: SF-539 CNS
not listed: RXF 393 renal
> 100 µM: all other assays above

COc1ccccc1/C=C/c1cnccn1
not listed: SR leukemia
> 10 µM: all other assays above
